What was measured:
μ-opioid receptor = molecular target: T1, μ-opioid receptor (Homo sapiens, UniProt P35372); assay: μ-opioid receptor [35S]GTPγS functional assay; type: biochemical; conditions: for Emax: maximal effect relative to the effect elicited by DAMGO, HEK-293 cells
T1 construct: host or cells: HEK-293; b235 lists HEK-293, CHO or U-2 OS)
Description: [^35S]GTPγS functional assays were conducted using freshly thawed μ-receptor membranes prepared in-house from a cell line expressing recombinant t opioid receptor in a HEK-293, CHO or U-2 OS cell background, or purchased from a commercial source (Perkin Elmer, Shelton, Conn.; or DiscovRx, Fremont, Calif.). Assay reactions were prepared by sequentially adding the following reagents to binding buffer (100 mM NaCl, 10 mM MgCl2, 20 mM HEPES, pH 7.4) on ice (final concentrations indicated): membrane protein (0.026 mg/mL), saponin ([…]), GDP ([…]) and [^35S]GTPγS (0.20 nM; Perkin Elmer, Shelton, Conn.). The prepared membrane solution (190 μl/well) was transferred to 96-shallow well polypropylene plates containing 10 al of 20× concentrated stock solutions of the agonist [D-Ala^2, N-methyl-Phe^4 Gly-ol^5]-enkephalin (DAMGO) prepared in dimethyl sulfoxide (DMSO). Plates were incubated for 30 min at about 25° C. with shaking. Reactions were terminated by rapid filtration onto 96-well Unifilter GF/B filter plates (Perkin Elmer, Shelton, Conn.) using a 96-well tissue harvester (Perkin Elmer, Shelton, Conn.) followed by three filtration washes with 200 μl of ice-cold wash buffer (10 mM NaH2PO4, 10 mM Na2HPO4, pH 7.4). Filter plates were subsequently dried at 50° C. for 2-3 hours. BetaScint scintillation cocktail (Perkin Elmer, Shelton, Conn.) was added (50 μl/well) and plates were counted using a Packard Top-Count for 1 min/well. Data were analyzed using the sigmoidal dose-response curve fitting functions in GraphPad PRISM v. 3.0, or an in-house function for non-linear, sigmoidal dose-response curve-fitting.
μGTP EC50 is the concentration of a compound providing 50% of the maximal response for the compound at a μ-opioid receptor.
μ GTP Emax (%) is the maximal effect elicited by a compound relative to the effect elicited by DAMGO, a standard agonist. Generally, the μ GTP Emax (%) value measures the efficacy of a compound to treat or prevent pain or other Conditions.
(§1) In TABLE 2, activity response of certain Compounds of the Invention to the μ- and κ-opioid receptors was determined as described above for functional assays using HEK-293 cells.

κ-opioid receptor [1] = molecular target: T2, κ-opioid receptor (Homo sapiens, UniProt P41145); assay: κ-opioid receptor [35S]GTPγS functional assay; type: biochemical; set-up: expressed in transfected cells; host or cells: HEK-293 (in-house membranes); conditions: for Emax: maximal effect relative to the effect elicited by U69,593, HEK-293 cells
T2 sequence (P41145 whole entry): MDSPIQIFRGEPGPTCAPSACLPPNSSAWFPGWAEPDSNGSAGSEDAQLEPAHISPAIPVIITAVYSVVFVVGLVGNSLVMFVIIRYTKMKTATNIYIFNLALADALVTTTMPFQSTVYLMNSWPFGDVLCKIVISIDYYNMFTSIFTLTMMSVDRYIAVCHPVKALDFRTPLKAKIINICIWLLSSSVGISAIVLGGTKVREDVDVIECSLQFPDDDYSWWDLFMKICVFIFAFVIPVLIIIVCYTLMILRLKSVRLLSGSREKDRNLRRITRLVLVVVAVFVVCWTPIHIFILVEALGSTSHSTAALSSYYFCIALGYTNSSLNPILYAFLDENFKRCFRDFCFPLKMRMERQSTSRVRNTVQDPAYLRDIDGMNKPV
Description: Functional [^35S]GTPγS binding assays were conducted as follows. K opioid receptor membrane solution was prepared by sequentially adding final concentrations of 0.026 μg/μl κ membrane protein (in-house), 10 μg/mL saponin, 3 μM GDP and 0.20 nM [^35S]GTPγS to binding buffer (100 mM NaCl, 10 mM MgCl2, 20 mM HEPES, pH 7.4) on ice. The prepared membrane solution (190 μl/well) was transferred to 96-shallow well polypropylene plates containing 10 μl of 20× concentrated stock solutions of agonist prepared in DMSO. Plates were incubated for 30 min at a temperature of about 25° C. with shaking. Reactions were terminated by rapid filtration onto 96-well Unifilter GF/B filter plates (Perkin Elmer, Shelton, Conn.) using a 96-well tissue harvester (Packard) and followed by three filtration washes with 200 μl ice-cold binding buffer (10 mM NaH2PO4, 10 mM Na2HPO4, pH 7.4). Filter plates were subsequently dried at 50° C. for 2-3 hours. Fifty μl/well scintillation cocktail (Perkin Elmer, Shelton, Conn.) was added and plates were counted in a Packard Top-Count for 1 min/well.
κ GTP EC50 is the concentration of a compound providing 50% of the maximal response for the compound at a κ receptor.
κ GTP Emax (%) is the maximal effect elicited by a compound relative to the effect elicited by U69,593.
as §1

κ-opioid receptor [2] = molecular target: T2, κ-opioid receptor; assay: κ-opioid receptor radioligand dose displacement binding assay ([3H]-U69,593); set-up: expressed in transfected cells; host or cells: HEK-293 (in-house membrane prep)
Description: Membranes from HEK-293 cells, CHO or U-2 OS cells expressing the recombinant human kappa opioid receptor (K) were prepared by lysing cells in ice cold hypotonic buffer (2.5 mM MgCl2, 50 mM HEPES, pH 7.4) (10 mL/10 cm dish) followed by homogenization with a tissue grinder/Teflon pestle. Membranes were collected by centrifugation at 30,000×g for 15 min at 4° C. and pellets were resuspended in hypotonic buffer to a final concentration of 1-3 mg/mL. Protein concentrations were determined using the BioRad protein assay reagent with bovine serum albumen as standard. Aliquots of κ receptor membranes were stored at −80° C.
Radioligand dose displacement assays used 0.4 nM [^3H]-U69,593 (GE Healthcare, Piscataway, N.J.; 40 Ci/mmole) with 15 μg membrane protein (recombinant K opioid receptor expressed in HEK 293 cells; in-house prep) in a final volume of 200 μl binding buffer (5% DMSO, 50 mM Trizma base, pH 7.4). Non-specific binding was determined in the presence of 10 μM unlabeled naloxone or U69,593. All reactions were performed in 96-well polypropylene plates for 1 hour at a temperature of about 25° C. Binding reactions were terminated by rapid filtration onto 96-well Unifilter GF/C filter plates (Perkin Elmer, Shelton, Conn.) presoaked in 0.5% polyethylenimine (Sigma). Harvesting was performed using a 96-well tissue harvester (Perkin Elmer, Shelton, Conn.) followed by five filtration washes with 200 μl ice-cold binding buffer. Filter plates were subsequently dried at 50° C. for 1-2 hours. Fifty μl/well scintillation cocktail (Perkin Elmer, Shelton, Conn.) was added and plates were counted in a Packard Top-Count for 1 min/well.
In TABLE 1, binding affinity of certain Compounds of the Invention to the κ-opioid receptors was determined as described above.

T1 sequence (P35372 whole entry, species assumed): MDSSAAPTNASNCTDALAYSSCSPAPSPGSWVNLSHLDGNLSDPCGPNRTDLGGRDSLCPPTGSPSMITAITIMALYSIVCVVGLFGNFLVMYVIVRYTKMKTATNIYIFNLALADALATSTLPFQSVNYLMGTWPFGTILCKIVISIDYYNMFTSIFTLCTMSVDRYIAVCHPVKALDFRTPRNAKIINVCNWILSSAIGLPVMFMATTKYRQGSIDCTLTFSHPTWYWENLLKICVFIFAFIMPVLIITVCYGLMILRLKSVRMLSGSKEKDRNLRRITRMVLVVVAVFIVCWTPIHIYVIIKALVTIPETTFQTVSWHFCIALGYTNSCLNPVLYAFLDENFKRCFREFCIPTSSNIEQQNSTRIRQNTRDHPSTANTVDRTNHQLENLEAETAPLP

SMILES | EC50 (μ-opioid receptor) | Emax (μ-opioid receptor) | EC50 (κ-opioid receptor [1]) | Emax (κ-opioid receptor [1]) | Ki (κ-opioid receptor [2])
COC(=O)c1cc2c([nH]c1=O)C[C@]13CCN(C(=O)OC(C)(C)C)[C@H](Cc4ccc(OC)cc41)[C@]3(O)C2 [Compound 3, 15-(tert-Butyl) 9-methyl (6R,6aS,12aR)-6a-hydroxy-2-methoxy-10-oxo-6,6a,7,10,11,12-hexahydro-5H-6,12a-(epiminoethano)naphtho[2,1-g]quinoline-9,15-dicarboxylate] | > 20000 nM | 0% | – | – | –
COC(=O)c1cc2c([nH]c1=O)C[C@]13CCN[C@H](Cc4ccc(OC)cc41)[C@]3(O)C2 [Compound 4, Methyl (6R,6aS,12aR)-6a-hydroxy-2-methoxy-10-oxo-6,6a,7,10,11,12-hexahydro-5H-6,12a-(epiminoethano)naphtho[2,1-g]quinoline-9-carboxylate] | > 20000 nM | 20 ± 2.08% | – | – | –
NC(=O)c1cc2c([nH]c1=O)C[C@]13CCN[C@H](Cc4ccc(O)cc41)[C@]3(O)C2 [Compound 6] | 2900 ± 868 nM | 23 ± 1% | – | – | –
COc1ccc2c(c1)[C@]13CCN(C)[C@H](C2)[C@@H]1Cc1cc(C(=O)O)c(=O)[nH]c1C3 [Compound 8, (6R,6aR,12aS)-2-methoxy-15-methyl-10-oxo-6,6a,7,10,11,12-hexahydro-5H-6,12a-(epiminoethano)naphtho[2,1-g]quinoline-9-carboxylic acid] | 13300 ± 1800 nM | 40.7 ± 5.04% | – | – | –
CN1CC[C@]23Cc4[nH]c(=O)c(C(=O)NCc5ccccc5)cc4C[C@H]2[C@H]1Cc1ccc(O)cc13 [Compound 11, (6R,6aR,12aS)-N-benzyl-2-hydroxy-15-methyl-10-oxo-6,6a,7,10,11,12-hexahydro-5H-6,12a-(epiminoethano)naphtho[2,1-g]quinoline-9-carboxamide] | 332 ± 61.7 nM | 32.3 ± 0.88% | – | – | –
CN1CC[C@]23Cc4[nH]c(=O)c(C(=O)N5CCCC5)cc4C[C@H]2[C@H]1Cc1ccc(O)cc13 [Compound 12, (6R,6aR,12aS)-2-hydroxy-15-methyl-9-(pyrrolidine-1-carbonyl)-6,6a,7,12-tetrahydro-5H-6,12a-(epiminoethano)naphtho[2,1-g]quinolin-10(11H)-one] | 145 ± 27.9 nM | 35.3 ± 1.67% | 24.2 ± 11.9 nM | 9.5 ± 0.5% | 14.4 ± 2.81 nM
CN1CC[C@]23Cc4[nH]c(=O)c(C(=O)N[C@@H]5c6ccccc6C[C@@H]5O)cc4C[C@H]2[C@H]1Cc1ccc(O)cc13 [Compound 13, (6R,6aR,12aS)-2-hydroxy-N-((1R,2S)-2-hydroxy-2,3-dihydro-1H-inden-1-yl)-15-methyl-10-oxo-6,6a,7,10,11,12-hexahydro-5H-6,12a-(epiminoethan)naphth[2-g]quinolinone-9-carboxamide] | 484 ± 113 nM | 34 ± 3.21% | – | – | –
CN1CC[C@]23Cc4[nH]c(=O)c(C(=O)N[C@H]5c6ccccc6C[C@H]5O)cc4C[C@H]2[C@H]1Cc1ccc(O)cc13 [Compound 14, (6R,6aR,12aS)-2-hydroxy-N-((1S,2R)-2-hydroxy-2,3-dihydro-1H-inden-yl)-15-methyl-10-oxo-6,6a,7,10,11,12-hexahydro-5H-6,12a-(epiminoethano)naphtho[2,1-g]quinoline-9-carboxamide] | 432 ± 135 nM | 34 ± 2.31% | – | – | –
CN(C(=O)c1cc2c([nH]c1=O)C[C@]13CCN(C)[C@H](Cc4ccc(O)cc41)[C@@H]3C2)C1CCCCC1 [Compound 15, (6R,6aR,12aS)—N-cyclohexyl-2-hydroxy-N,15-dimethyl-10-oxo-6,6a,7,10,11,12-hexahydro-5H-6,12a-(epiminoethano)naphtho[2,1-g]quinoline-9-carboxamide] | 289 ± 34.8 nM | 29.7 ± 3.28% | – | – | –
CN1CC[C@]23Cc4[nH]c(=O)c(C(=O)N5Cc6ccccc6C5)cc4C[C@H]2[C@H]1Cc1ccc(O)cc13 [Compound 16, (6R,6aR,12aS)-2-hydroxy-9-(isoindoline-2-carbonyl)-15-methyl-6,6a,7,12-tetrahydro-5H-6,12a-(epiminoethano)naphtho[2,1-g]quinolin-10(11H)-one] | 40.2 ± 11.5 nM | 47 ± 2.65% | > 20000 nM | 0% | 1.41 ± 0.52 nM
CN1CC[C@]23Cc4[nH]c(=O)c(C(=O)N5[C@@H]6CC[C@H]5C[C@@H](O)C6)cc4C[C@H]2[C@H]1Cc1ccc(O)cc13 [Compound 17, (6R,6aR,12aS)-2-hydroxy-9-((1R,3R,5S)-3-hydroxy-8-azabicyclo[3.2.1]octane-8-carbonyl)-15-methyl-6,6a,7,12-tetrahydro-5H-6,12a-(epiminoethano)naphtho[2,1-g]quinolin-10(11H)-one] | 240 ± 36.8 nM | 27.5 ± 2.53% | 152 ± 28.8 nM | 9.74 ± 1.51% | 17.7 ± 7.6 nM
CN1CC[C@]23Cc4[nH]c(=O)c(C(=O)N5CCS(=O)(=O)CC5)cc4C[C@H]2[C@H]1Cc1ccc(O)cc13 [Compound 18, (6R,6aR,12aS)-9-(1,1-dioxidothiomorpholine-4-carbonyl)-2-hydroxy-15-methyl-6,6a,7,12-tetrahydro-5H-6,12a-(epiminoethano)naphtho[2,1-g]quinolin-10(11H)-one] | 462 ± 88.4 nM | 33.2 ± 3.3% | – | – | –
CCn1c2c(cc(C(=O)N3Cc4ccccc4C3)c1=O)C[C@@]1(O)[C@H]3Cc4ccc(O)cc4[C@@]1(CCN3C)C2 [Compound 19, (6R,6aS,12aR)-11-ethyl-2,6a-dihydroxy-9-(isoindoline-2-carbonyl)-15-methyl-6,6a,7,12-tetrahydro-5H-6,12a-(epiminoethano)naphtho[2,1-g]quinolin-10(11H)-one] | 288 ± 49.6 nM | 30.8 ± 2.31% | – | – | –
COc1ccc2c(c1)[C@]13CCN(C(=O)OC(C)(C)C)[C@H](C2)[C@]1(O)Cc1cc(C(=O)O)c(=O)[nH]c1C3 [Compound 20, (6R,6aS,12aR)-15-(tert-butoxycarbonyl)-6a-hydroxy-2-methoxy-10-oxo-6,6a,7,10,11,12-hexahydro-5H-6,12a-(epiminoethano)naphtho[2,1-g]quinoline-9-carboxylic acid] | > 20000 nM | 3% | – | – | –

From patent publication US10131666B2, “Heterocyclic morphinan derivatives and use thereof” (Purdue Pharma L.P., priority 2014, dated 2018)
